Results from US20160296438A1, “PROTECTIVE ACTION OF LUTEIN AGAINST BLUE LIGHT ON HUMAN SKIN CELL LINES” (Kemin Industries, Inc., priority 2015, published 2016).
“Also recorded” adds a separate entry of the source.

Key:
[1] = Solubility of lutein in cell culture media and DMSO; type: physicochemical
Experimental: FloraGLO™ Lutein (production number M080033, lot number 1405102477, manufactured date Jun. 04, 2014) was solubilized in sterile dimethyl sulfoxide (DMSO) [ATCC, lot #61908420] with intermittent shaking for at least 6 hours to get a stock of 2 mg/mL solution. From the stock; 2.5, 5 and 10 μl of the lutein solution was added to wells containing 100 μl media to get a final lutein concentration of 50, 100 and 200 ppm in corresponding wells. Hydrogen peroxide (H2O2) [Sigma, lot #WKBS8306V] solution at 1 mM was served as a positive control in all the studies. Pure DMSO at 2.5, 5 and 10 μl was added to few wells to have the DMSO control.
FloraGLO™ Lutein was solubilized in DMSO and applied to cell cultures. […] In our earlier attempts for cell viability assays with various detection mechanisms, this high concentrations of DMSO might be interacting with cell culture membranes and causing a reduction in cell proliferation and decrease in cell viability compared to controls.

[2] = system: human dermal fibroblasts (HDF) cells; assay: Intracellular reactive oxygen species (ROS) assay (DCFH-DA) under blue light; type: cell-based; settings: lutein at 50, 100 and 200 ppm, blue LED 476 nm, 9 hours, FIG. 6
Experimental: (§1) Reactive Oxygen Species (ROS) assay. ROS activity was measured using Oxiselect™ intracellular ROS assay kit (Cell BioLabs, San Diego, Calif., catalogue number STA 342, lot #59342025). The cells were seeded into 96-well microplates at a density of 100,000 cells/mL (200 μL). Both the cell lines were treated with cell permeable fluorogenic probe 2′, 7′-dichlorodihydrofluorescin diacetate (DCFH-DA). Cells were washed with D-PBS for couple of times and treated with lutein at different concentrations and exposed to blue LED lights (476 nm) for 9 hours (Cells that were not treated with lutein will serve as blue light control). Cells treated with pure DMSO serves as a control for DMSO effect in presence and absence of blue light. […] After 5 minutes incubation, 150 μL of this medium was transferred to a black wall 96-well plate and fluorescence was measured. […] Intracellular reactive oxygen species (ROS) activity and the oxidative stress was measured using Oxiselect™ intracellular ROS assay kit which can measure hydroxyl, peroxyl and other free radical in the cells. […] DCFH will be rapidly oxidized to fluorescent […] (DCF-green fluorescence) in presence of reactive oxygen species. The fluorescence intensity is proportional to the ROS levels within the cell cytosol. […]

[3] = system: human epidermal keratinocytes (HEK) cells; assay: as above; type: cell-based; settings: lutein at 50, 100 and 200 ppm, blue LED 476 nm, 9 hours, FIG. 5
Experimental: as §1

[4] = system: human dermal fibroblasts (HDF) cells; assay: Blue light shielding study with lutein, cell viability/proliferation by MTS assay; type: cell-based; settings: lutein solution in DMSO at 50, 100 and 200 ppm as shield plate on top, blue LED 476 nm, 9 hours, p<0.05, FIG. 3
Experimental: (§2) Cell culture studies. All the cell culture studies were performed using HEK cells [HEK001 (ATCC® CRL-2404™) lot #61331463] continuous cell lines and Human Skin Fibroblast (HDF) [CCD1093Sk (ATCC® CRL2115™) lot #3296816] cell lines [ATCC, Manassas, Va.].
(§3) The growth medium used for HEK cells was prepared according to ATCC guidelines. Growth media consisting of keratinocyte serum free medium (GIBCO-BRL 17005042, lot #1638561) with 5 ng/mL human recombinant epidermal growth factor (EGF) (ATCC, lot # 1584416) and 2 mM L-glutamine (ATCC, lot #62195752) (without bovine pituitary extract and serum) and supplemented with penicillin (10000 units) and streptomycin (10 mg/mL) solution (Gibco, lot #1469707). The growth medium used for HDF cells consisting of eagle's Minimum Essential Medium (EMEM) (ATCC-302003, lot #62028896) with 10% FBS and supplemented with penicillin (10000 units) and streptomycin (10 mg/mL) solution. Cells were grown in cell culture flasks (75 cm^2) [Fisher Scientific, catalog number 10-126-37] to approximately 80% confluence in 5% CO2 environment incubator (NuAire, MN) maintained at 37° C. Confluent cells were passed into subsequent cultures by trypsinization following neutralization and centrifugation. […]
(§4) MTS assay. […] After incubation the absorbance at 490 nm was recorded using microplate Reader (SpectraMax® Me5, Molecular Devices, LLC. Sunnyvale, Calif.). […]

[5] = system: human epidermal keratinocytes (HEK) cells; assay: as above; type: cell-based; settings: lutein solution in DMSO at 50, 100 and 200 ppm as shield plate on top, blue LED 476 nm, 9 hours, p<0.05, FIG. 2
Experimental: as §2, §3, §4

## CC1=C[C@H](O)CC(C)(C)[C@H]1/C=C/C(C)=C/C=C/C(C)=C/C=C/C=C(C)/C=C/C=C(C)/C=C/C1=C(C)C[C@@H](O)CC1(C)C [lutein]
[1]; DMSO
  solubility in DMSO: limited solubility
[1]; cell culture compatible media
  solubility in cell culture compatible media: does not dissolve
[2]
  fluorescence signal (DCF, generation of ROS) on blue light exposure: low and prevent the generation of reactive oxygen species
[3]
  fluorescence signal (DCF, generation of ROS) on blue light exposure: low and prevent the generation of reactive oxygen species
[4]
  cell proliferation (% cell viability) compared to blue light control: significantly improved; also recorded: shielded the blue light effectively
[5]
  cell proliferation (% cell viability) compared to blue light control: significantly improved; also recorded: shielded the blue light effectively
